What was measured:
NCI-H1975 [1] = test: Antiproliferative activity against human NCI-H1975 cells assessed as reduction in cell viability incubated for 72 hrs by SRB assay; type: functional, cell-based; conditions: NCI-H1975, 72 h
Hs68 = test: Cytotoxicity against human HS68 cells assessed as reduction in cell viability incubated for 72 hrs by SRB assay; type: cell-based; conditions: Hs68, 72 h
NCI-H1975 [2] = test: Antitumor activity against human NCI-H1975 cells xenografted in athymic nude BALB/c mouse assessed as tumor size at 1 mg/kg, ip administered for 4 weeks (reference value: 546.2 +/- 95.2 cu.mm); type: functional
NCI-H1975 [3] = test: Antitumor activity against human NCI-H1975 cells xenografted in athymic nude BALB/c mouse assessed as tumor size at 4 mg/kg, ip administered for 4 weeks (reference value: 546.2 +/- 95.2 cu.mm); type: functional
NCI-H1975 [4] = test: Potency index, ratio of IC50 of AS4583 to IC50 of compound for Antiproliferative activity against human NCI-H1975 cells assessed as reduction in cell viability incubated for 72 hrs by SRB assay; type: functional

Row | SMILES | IC50 (NCI-H1975 [1]) [nM] | other results
1 | Cc1oc2c(c1C(=O)NCCCCc1ccccc1)C(=O)c1ccccc1C2=O | > 10000 | –
2 | Cc1oc2c(c1C(=O)NCCCN1CCCC1)C(=O)c1ccccc1C2=O | 24 | IC50 (Hs68): 77 nM
3 | Cc1oc2c(c1C(=O)NCCCN1CCOCC1)C(=O)c1ccccc1C2=O | 80 | –
4 | Cc1oc2c(c1C(=O)NCCCn1ccnc1)C(=O)c1ccc(F)cc1C2=O | 17 | Activity (NCI-H1975 [2]): 128.2 mm3; Activity (NCI-H1975 [3]): 109.5 mm3
5 | Cc1oc2c(c1C(=O)NCCCn1cccc1)C(=O)c1ccccc1C2=O | 918 | –
6 | Cc1oc2ccccc2c1C(=O)NCCCn1ccnc1 | > 10000 | –
7 | Cc1oc2c(c1C(=O)NCCn1ccnc1)C(=O)c1ccccc1C2=O | 280 | –
8 | Cc1oc2c(c1C(=O)NCCCCn1ccnc1)C(=O)c1ccccc1C2=O | 250 | –
9 | CC(C)c1oc2c(c1C(=O)NCCCn1ccnc1)C(=O)c1ccccc1C2=O | 260 | –
10 | O=C1c2ccccc2C(=O)c2c1oc(-c1ccccc1)c2C(=O)NCCCn1ccnc1 | 826 | –
11 | CCc1oc2c(c1C(=O)NCCCn1ccnc1)C(=O)c1ccccc1C2=O | 288 | –
12 | Cc1[nH]c2c(c1C(=O)NCCCn1ccnc1)C(=O)c1ccccc1C2=O | 8730 | Ratio IC50 (NCI-H1975 [4]): 100
